Assay [1] has as its system mixed lymphocytes (BALB/c+C57BL/6). Kind of assay: Mixed lymphocyte reaction (MLR) assay. To be noted: Mus musculus, percent of positive control, 3H-thymidine, immunostimulatory criterion 150% or greater, read-out: Immunomodulatory activity, % Reference; for activity at 5 µg/mL: 5 ug/ml; for activity at 50 µg/mL: 50 ug/ml. It is filed as cell-based, murine. How it is done:
The assay method was uded to identify immune response modifiers of the compositions of Formulae I-III corresponding to composition 1-3 of the samples.
Aseptically removed spleens from BALB/c and C57BL/6 mice were homogenized, separately, in RPMI 1640 medium with 10% fetal calf serum, 2% L-glutamine,15 mM HEPES, 1% antibiotic-antimycotic solution and 25 μg/ml gentamycin (GIBCO). Lymphocytes were then derived by differential cetrifugation after red blood cell lysing and serial cell washing in complete media. Cells were adjusted to equal concentrations (2.5×10^6 cells/ml) and combined after removal of negative control aliquots. Incubation conditions for the cells were 5% CO2, 95% air at 37° C.
1. Add composition to each well of a 96-well plate and allow solvent to evaporate to dryness, if not aqueous.
2. Add 0.2 ml mixed lymphocytes (BALB/c+C57BL/6) to each well and mix.
3. Incubate in 5% CO2 at 37° C. for 86 hours.
4. Pulse wells with 0.1 ml ^3 H-thymidine (1 uCi/well).
5. Incubate in 5% CO2 at 37° C. for 6 hours.
6. Harvest plates and add 2 ml scintillant to each vial containing a filter disc.
7. Count vials in a liquid scintillation counter (Beckman).
8. Average replicate counts and report data as percent of positive control. The criteria for immunostimulatory effectiveness is a value of 150%, or greater, above control values for mixed lymphocytes in culture.

Assay [2] has as its system C. albicans. Kind of assay: Minimum inhibitory concentration (MIC), anti-Candida assay. To be noted: approximately 1000 cells/mL, 37° C. overnight. It is filed as cell-based. How it is done:
Candida albicans: C. albicans (Ca) is grown on Sabouraud dextrose agar to produce single colonies one of which is used to inoculate Sabouraud dextrose broth. The broth is incubated at 37° C. with shaking at 200 rpm for 18 hrs., the resultant culture is frozen with 10% (v/v) glycerol at -80° C. and used as the inoculum for the anti-Candida assay. Two-fold dilutions of the drug are prepared in 50 μL volumes of Sabouraud dextrose broth using 96-well microtiter plates. An inoculum of C. albicans is added in a small volume to give a cell density of approximately 1000 cells/mL. Plates are incubated at 37° C. overnight. 10 uL of Triphenyl tetrazolium chloride (1% w/v) is then added to each well; a further 2 hour incubation results in a deep coloration of the microorganism.

Assay [3] has as its system P388 mouse leukemia cells. Kind of assay: P388 mouse leukemia cell assay. The class given is cell-based. To be noted: 48 hours. How it is done: P388 mouse leukemia cells are grown in Dulbecco MEM medium with 10% horse serum 4 mM, glutamine, and 20 μg/ml gentamycin (Biologos, Inc.). Cells are incubated in 10% CO2 and subcultured 2 times per week.
1. Add composition to each well of a 24-well plate or tube and allow solvent to evaporate to dryness.
2. Add 2 ml (1.2×10^5) cells to each well or tube and mix.
3. Incubate in 10% CO2 at 37° for 48 hours.
4. Read plates with an inverted microscope, scoring activity from 1+ to 4+ as follows: ND (not detectable), >90%, 1+, 75-90%; 2+, 50-74%; 3+, 25-49%; 4+, <25% of control growth. Alternatively, scoring may be expressed as IC50 which represents the minimum concentration of the composition required to inhibit 50% of the cell growth on the plate. Cell counts are performed on each tube and results are reported as percent of control.

≈ marks a conversion by molar mass, not a printed value.

activity, MIC and IC50 data for 3 molecules are collected here from patent US4755529A, “Guaiazulene derivatives and their methods of use” (Harbor Branch Oceanographic Institution Inc., priority 1986, dated 1988).

As usually defined, the MIC is the lowest concentration that inhibits growth of the organism. A low value points to inhibition by little substance. Usually IC50 stands for the concentration needed to halve the response being measured. A higher IC50 goes with lower potency.

With `Cc1cc2c(cc3c(C)ccc1-3)C(C)CO2` (stereo not drawn) [Composition (1), dihydrolinderazulene], in assay [1], the activity at 5 µg/mL was 255% and the activity at 50 µg/mL amounted to 1%. In assay [2], this molecule gave an MIC of 50 µg/mL (≈ 236 µM). The same molecule registered an IC50 in assay [3] of 35 µg/mL (≈ 165 µM).

Consider `Cc1ccc(C(C)C)cc2c(C)ccc1-2` [Composition (2), guaiazulene], for which, in assay [1], the activity at 5 µg/mL is 284% and the activity at 50 µg/mL was 351%. For the same molecule, in assay [2], 25 µg/mL (≈ 126 µM) was the least that counted as inhibitory (MIC). The molecule further registered an IC50 in assay [3] of 35 µg/mL (≈ 176 µM).

`Cc1cc2occ(C)c2cc2c(C)ccc1-2` [Composition (3), linderazulene]: in assay [1], the activity at 5 µg/mL came to 155% and the activity at 50 µg/mL was determined as 19%. This molecule also had an MIC in assay [2] of 12.5 µg/mL (≈ 59.4 µM). Also, the half-inhibitory concentration (IC50) in assay [3] came to 50 µg/mL (≈ 238 µM).
